Literature values as cited in paper PMC4357254, “Molecular cloning and characterization of the allatotropin precursor and receptor in the desert locust, Schistocerca gregaria” (Frontiers in Neuroscience, 2015).
Where no end group is shown, it is not given here.

Experiments:
ATR of M. sexta = conditions: ref Horodyski et al., [2011]
Description: (§1) ATs exert effects on their cellular targets by binding to receptors with high affinity binding sites that are members of the family of rhodopsin-like G protein-coupled receptors (GPCRs). The AT receptors (ATRs) are orthologous to vertebrate orexin/hypocretin receptors. To date, five ATRs have been characterized; namely the neuropeptide 16 receptor in Bombyx mori (Yamanaka et al., [2008]), the receptors of M. sexta (Horodyski et al., [2011]), Tribolium castaneum (Vuerinckx et al., [2011]), Aedes aegypti (Nouzova et al., [2012]) and Bombus terrestris (Verlinden et al., [2013]). The first three w ...

[1] = test system: ATR receptor of B. terrestris; conditions: ref Verlinden et al., [2013]
Description: as §1

T. castaneum receptor = conditions: ref Vuerinckx et al., [2011]
Description: as §1

[2] = test system: neuropeptide 16 receptor in Bombyx mori; conditions: ref Yamanaka et al., [2008]
Description: as §1

corpora allata (CA) = conditions: in vitro; ref Kataoka et al., [1989]
Description: Allatotropin (AT) was originally identified as an amidated tridecapeptide isolated from the nervous system of the lepidopteran Manduca sexta. […] Most ATs have a conserved C-terminal pentapeptide that consists of a TARGFa motif although the hymenopteran AT has an exceptional TAYGFa C-terminal (Veenstra et al., [2012]). There are also AT-like peptides (ATLs) that contain more variation in their C-terminal motif but t ...

Manse-AT: amidated tridecapeptide isolated from the nervous system of the lepidopteran Manduca sexta (GFKNVEMMTARGF-NH2; UniProt P21786 37-49, looked up)
activation of M. sexta ATR (ATR of M. sexta): dose-dependently activated
activation of B. terrestris ATR [1]: responded
concentrations needed for activation of B. terrestris ATR ([1]; relative to other ATRs): much higher concentrations were needed
activation of T. castaneum ATR (T. castaneum receptor): dose-dependently activated
activation of B. mori neuropeptide 16 receptor [2]: dose-dependently activated
JH biosynthesis in the corpora allata (corpora allata (CA)): stimulate juvenile hormone (JH) biosynthesis
